Measured values: PMC5534107, “Sensitization of ASIC3 by proteinase-activated receptor 2 signaling contributes to acidosis-induced nociception” (Journal of Neuroinflammation, 2017)

Columns and labels:
[1] = tested on: ASIC3 currents in CHO cells co-expressing ASIC3 and PAR2; experiment: Whole-cell patch clamp of proton-gated currents (I pH 6.6) in CHO cells co-expressing ASIC3 and PAR2; type: cell-based, Chinese hamster
Description: (§1) ASIC3, ASIC1a, ASIC1b, ASIC2b, and PAR2 complementary DNAs (cDNAs) were used for heterologous expression in CHO cells as described previously (Wang et al., 2013). In brief, CHO cells were cultured at 37 °C in a humidified atmosphere of 5% CO2 and […] and passaged twice a week. Transient transfection of CHO cells was performed using HilyMax liposome transfection reagent (Dojindo Laboratories). CHO cells were maintained in F-12 Nutrient Mixture (added 1.176 g of NaHCO3/L medium) supplemented with 10% fetal bovine serum and 1% gluta-MAXTM-1 (100×; Invitrogen). When ASIC3 and PAR2 cDNAs were co-transfected, the ratio was kept at 1:1. All plasmids used contained, in addition to the desired ASIC3 cDNA, the coding sequence for enhanced green fluorescent protein to aid identification of transfected cells. Electrophysiological measurements were performed 24–48 h after transfection.
(§2) Whole-cell patch clamp and voltage clamp recordings were carried out at room temperature (22–25 °C) using a MultiClamp-700B amplifier and Digidata-1440A A/D converter (Axon Instruments, CA, USA). Recording pipettes were pulled using a Sutter P-97 puller (Sutter Instruments, CA, USA). The micropipettes were filled with internal solution containing (mM) KCl 140, MgCl2 2.5, HEPES 10, EGTA 11, and ATP 5; its pH was adjusted to 7.2 with KOH, and osmolarity was adjusted to 310 mOsm/L with sucrose. Cells were bathed in an external solution containing (mM) NaCl 150, KCl 5, CaCl2 2.5, MgCl2 2, HEPES 10, D-glucose 10; its osmolarity was adjusted to 330 mOsm/L with sucrose and its pH to 7.4. The resistance of the recording pipette was in the range of 3–6 MΩ. A small patch of membrane underneath the tip of the pipette was aspirated to form a giga seal, and then, a negative pressure was applied to rupture it, thus establishing a whole-cell configuration. The series resistance was compensated for by 70–80%. The adjustment of capacitance compensation was also done before recording the membrane currents. The membrane voltage was maintained at −60 mV in all voltage clamp experiments unless otherwise specified. Current clamp recordings were obtained by switching to current clamp mode after a stable whole-cell configuration was formed in voltage clamp mode. Only cells with a stable resting membrane potential (more negative than −50 mV) were used in the study. Signals were sampled at 10 to 50 kHz and filtered at 2 to 10 kHz, and the data were stored in compatible PC computer for off-online analysis using the pCLAMP 10 acquisition software (Axon Instruments, CA, USA).
Drugs purchased from Sigma and used in the experiments include hydrochloric acid, 2-furoyl-LIGRLO-NH2 (a PAR2-activating peptide (PAR2-AP)), trypsin, FSLLRY-NH2, APETx2, and capsazepine. Different pH values were configured with hydrochloric acid and external solution. All drugs were dissolved daily in the external solution just before use and held in a linear array of fused silica tubes (o.d./i.d. = 500 μm/200 μm) connected to a series of independent reservoirs. The application pipette tips were positioned ∼30 μm away from the recorded neurons. The application of each drug was driven by gravity and controlled by the corresponding valve, and rapid solution exchange could be achieved within about 100 ms by shifting the tubes horizontally with a PC-controlled micromanipulator. Cells were constantly bathed in normal external solution flowing from one tube connected to a larger reservoir between drug applications. In some experiments where GDP-β-S (Sigma), U-73122(Sigma), and GF109203X (RBI) were applied for intracellular dialysis through recording patch pipettes, they were dissolved in the internal solution before use. To ensure that the cell interior was perfused with the dialysis drug, there was at least a 30-min interval between the establishment of whole-cell access and the current measurement. […]

rat DRG neurons = experiment: Current clamp of acidosis-evoked action potentials (spikes) in rat DRG neurons; type: cell-based; conditions: APETx2 2 μM; pH 6.6 for 5 s; capsazepine 10 μM
Source text: The experimental protocol was approved by the animal research ethics committee of Hubei University of Science and Technology (No. 2016–67). All procedures conformed to international guidelines on the ethical use of animals, and every effort was made to minimize the number of animals used and their sufferings. Five- to 6-week-old Sprague–Dawley male rats were anesthetized with 7% chloral hydrate and then decapitated. The DRGs were taken out and transferred immediately into Dulbecco’s modified Eagle’s medium (DMEM, Sigma) at pH 7.4. After the removal of the surrounding connective tissues, the DRGs were minced with fine spring scissors and the ganglion fragments were placed in a flask containing 5 ml of DMEM in which trypsin (type II-S, Sigma) 0.5 mg/ml, collagenase (type I-A, Sigma) 1.0 mg/ml, and DNase (type IV, Sigma) 0.1 mg/ml had been dissolved and incubated at 35 °C in a shaking water bath for 25–30 min. Soybean trypsin inhibitor (type II-S, Sigma) 1.25 mg/ml was then added to stop trypsin digestion. The incubating solution was then replaced by external solution. […]
(§3) Drugs purchased from Sigma and used in the experiments include hydrochloric acid, 2-furoyl-LIGRLO-NH2 (a PAR2-activating peptide (PAR2-AP)), trypsin, FSLLRY-NH2, APETx2, and capsazepine. […] The application pipette tips were positioned ∼30 μm away from the recorded neurons. […]

[2] = tested on: ASIC3-like currents in rat DRG neurons; experiment: Voltage clamp of proton-evoked ASIC3-like currents in acutely isolated rat DRG neurons; type: cell-based
Source text: The experimental protocol was approved by the animal research ethics committee of Hubei University of Science and Technology (No. 2016–67). All procedures conformed to international guidelines on the ethical use of animals, and every effort was made to minimize the number of animals used and their sufferings. Five- to 6-week-old Sprague–Dawley male rats were anesthetized with 7% chloral hydrate and then decapitated. The DRGs were taken out and transferred immediately into Dulbecco’s modified Eagle’s medium (DMEM, Sigma) at pH 7.4. After the removal of the surrounding connective tissues, the DRGs were minced with fine spring scissors and the ganglion fragments were placed in a flask containing 5 ml of DMEM in which trypsin (type II-S, Sigma) 0.5 mg/ml, collagenase (type I-A, Sigma) 1.0 mg/ml, and DNase (type IV, Sigma) 0.1 mg/ml had been dissolved and incubated at 35 °C in a shaking water bath for 25–30 min. Soybean trypsin inhibitor (type II-S, Sigma) 1.25 mg/ml was then added to stop trypsin digestion. The incubating solution was then replaced by external solution. Dissociated neurons were placed into a 35-mm Petri dish and kept for at least 1 h in normal external solution before the start of electrophysiological experiments. After plating of the DRG neurons, the neurons were used for experiments within 24 h. The neurons selected for electrophysiological experiment were 15–35 μm in diameter.
as §2, with “The membrane voltage was maintained at −60 mV in all voltage clamp experiments unless otherwise specified. Current clamp recordings were obtained by switching to current clamp mode after a stable whole-cell configuration was formed in voltage clamp mode. Only cells with a stable resting membrane potential (more negative than −50 mV) were used in the study. Signals were sampled at 10 to 50 kHz and filtered at 2 to 10 kHz, and the data were stored in compatible PC computer for off-online analysis using the pCLAMP 10 acquisition software (Axon Instruments, CA, USA).” left out
as §3

rats = experiment: Nociceptive behavior (flinches) induced by intraplantar acetic acid in rats; type: in vivo, rat; conditions: n = 10
Description: Rats were placed in a 30 × 30 × 30 cm Plexiglas chamber and allowed to habituate for at least 30 min before nociceptive behavior experiments. A blind experiment was carried out. Separate groups of rats were coded and pretreated with 20 μl capsazepine (100 μM) together with vehicle and different dosages of PAR2-AP, FSLLRY-NH2, or APETx2 in the ipsilateral hind paw before injection of acetic acid. […] And nociceptive behavior (that is, number of flinches) was counted over a 5-min period starting immediately after the injection.
We finally ascertain whether PAR2-AP facilitates pain-related behaviors through interacting with ASIC3 in vivo. Acetic acid (0.6%) was injected into the right hind paws of rats and measured the number of flinches that the animals spent licking and/or lifting the injected paw. Intraplantar injection of acetic acid elicits an intense flinch/shaking response which mainly occurred during 0–5 min after injection of acetic acid. […] However, the low dose (1 μg) of PAR2-AP had no effect on the acidosis-induced nocifensive behaviors (Bonferroni’s post hoc test, P > 0.1, n = 10). In addition, the exacerbating effect of 10 μg PAR2-AP on acidosis-induced nocifensive behaviors was blocked by co-administration of 20 μg FSLLRY-NH2, a selective PAR2 antagonist (Bonferroni’s post hoc test, P < 0.01, compared with 10 μg PAR2-AP alone, n = 10; Fig. 6a).

[3] = tested on: ASIC3 currents in CHO cells expressing alone ASIC3, but not expressing PAR2; experiment: Whole-cell patch clamp, CHO cells expressing ASIC3 alone (no PAR2); type: cell-based, Chinese hamster; conditions: 10^−5 M; P > 0.1; n = 10
Description: as §1
Whole-cell patch clamp and voltage clamp recordings were carried out at room temperature (22–25 °C) using a MultiClamp-700B amplifier and Digidata-1440A A/D converter (Axon Instruments, CA, USA). […]
as §3

APETx2 was tested, and the “effect on peak ASIC current (I pH 6.6)” value ([1]; APETx2 500 nM) was “inhibited the peak ASIC current”, the “effect on sustained plateau current (I pH 6.6)” value ([1]; APETx2 500 nM) was “without affecting the sustained plateau” and the “effect on acidosis-evoked spikes” value (rat DRG neurons) was “completely blocked”. For the same molecule, the “effect on proton-induced ASIC current (I pH 6.6) in DRG neurons” value ([2]; APETx2 2 μM, eight DRG neurons, capsazepine 10 μM) was “completely blocked”, the “effect on acetic acid-induced nociceptive response” value (rats; APETx2 20 μM, 20 μl intraplantar, P < 0.01) was “potently blocked” and the “effect on increased pain behavior induced by 10 μg PAR2-AP” value (rats; APETx2 20 μM, 20 μl intraplantar, P < 0.01 vs PAR2-AP) was “potently inhibited”.
With `CN(C)CCCn1cc(C2=C(c3c[nH]c4ccccc34)C(=O)NC2=O)c2ccccc21` [GF109203X] the “PAR2-AP-induced increase of I pH 6.6 with GF109203X in the pipette solution” value ([1]; GF109203X 2 μM intracellular dialysis, PAR2-AP 10^−5 M for 1 min, n = 10) was 3.2 ± 6.0%.
For FSLLRY-NH2, the “change of peak amplitude of I pH 6.6 after pretreatment with FSLLRY-NH2 alone” value ([1]; 10^−5 M) was at most 5%, the “PAR2-AP-induced increase of ASIC3 currents in cells pretreated with FSLLRY-NH2” value ([1]; PAR2-AP 10^−5 M + FSLLRY-NH2 10^−5 M, n = 10, P < 0.01 vs PAR2-AP alone) was 7.3 ± 7.1% and the “trypsin-induced increase of ASIC3 currents in cells pretreated with FSLLRY-NH2” value ([1]; trypsin 10^−5 M + FSLLRY-NH2 10^−5 M, n = 10) was 8.4 ± 6.2%. The “effect of FSLLRY-NH2 on trypsin potentiation of ASIC currents in DRG neurons” value ([2]; FSLLRY-NH2 10^−5 M, trypsin 10^−5 M) was “inhibited”, the “increase of peak amplitude of I pH 6.6 in DRG neurons when PAR2-AP co-treated with FSLLRY-NH2” value ([2]; PAR2-AP 10^−5 M + FSLLRY-NH2 10^−5 M, capsazepine 10 μM, n = 9, P < 0.01 vs PAR2-AP alone) was 9.3 ± 44% and the “effect on exacerbation of acidosis-induced nocifensive behaviors by 10 μg PAR2-AP” value (rats; FSLLRY-NH2 20 μg co-administered, P < 0.01 vs 10 μg PAR2-AP alone) was “blocked”.
`COc1ccc2c(c1)CC[C@@H]1[C@@H]2CC[C@]2(C)[C@@H](NCCCCCCN3C(=O)C=CC3=O)CC[C@@H]12` [U-73122] was tested, and the “PAR2-AP-induced increase of I pH 6.6 with U-73122 in the pipette solution” value ([1]; U-73122 10 μM intracellular dialysis, PAR2-AP 10^−5 M for 1 min, n = 10) was 6.9 ± 2.8%.
For “trypsin: protease, possible physiological ligand of PAR2; cleaves and activates PAR2”, the “increase of peak amplitude of I pH 6.6 after pretreatment with agonist alone” value ([1]; 10^−5 M for 1 min, n = 10) was 48.7 ± 8.3% and the “effect on I pH 6.6 in ASIC3-transfected CHO cells without PAR2” value [3] was “Neither PAR2-AP nor trypsin had an effect”.
`O=S(=O)(NCCNC/C=C/c1ccc(Br)cc1)c1cccc2cnccc12` [H-89] was tested, and the “PAR2-AP-induced increase of I pH 6.6 with H-89 in the pipette solution” value ([1]; H-89 10 μM intracellular dialysis, PAR2-AP 10^−5 M for 1 min, n = 10) was 15.3 ± 5.8%.
